Reference: patent publication US12194050B2, “Thiadiazine derivatives” (RICHTER GEDEON NYRT., priority 2018, dated 2025)
pEC50: −log10 of the molar value.

Molecular target: human α7 nAchR (Homo sapiens (Human), UniProt P36544)
Experiment: Human α7 nicotinic acetylcholine receptor [Ca2+]i assay (PAM, Ca2+ fluorometry)
Assay type: cell-based
Conditions: Flp-In 293 cells expressing human α7 nAchR and human RIC-3; in presence of saturating agonist (mostly PNU-282987, 1 μM)
Description: Biological Activity Human α7 Nicotinic Acetylcholine Receptor [Ca^2+]i Assay
Cells: Flp-In 293 cells stably expressing human α7 nAchR and human RIC-3 (α7 cells, generated in house.)
Materials: 96-well plates coated with PDL (Falcon), culture medium, assay buffer, DMSO, FLIPR Calcium 5 kit (Molecular Devices), probenecid, agonist and PAM test compounds.
Brief Description of the Method (Ca^2+ Fluorometry)
α7 cells stably expressing human α7 nAchR were cultured in the medium detailed above, and were split twice a week. For the fluorometric measurements of cytosolic Ca^2+ ion concentration ([Ca^2+]i) cells were seeded in 96-well microplates at a density of 60000 cells/well and maintained overnight in a tissue culture incubator at 37° C. under an atmosphere of 95% air/5% CO2. The plating medium was identical with the culture medium. 50 μl of the growth medium was aspirated with a cell washer (BioTek Elx405UCVWS). Then 50 μl/well Calcium 5 kit diluted 2-fold in assay buffer was added manually using an 8-channel pipette. After an incubation period (20 minutes, 37° C.) 50 μl/well assay buffer containing vehicle (DMSO, 4% added) or reference α7 PAMs (4×of the final concentration) were added manually and the cells were incubated for an additional 10 minutes at 37° C. Baseline and agonist-evoked [Ca2+]i-changes were monitored with FlexStation II (Molecular Devices, Sunnyvale, Calif.), a plate reader fluorometer with integrated 8-channel fluid addition capability. Fluorescence measurements were carried out at 37° C. The dye was excited at 485 nm, emission was sampled at 525 nm at 1.4-s intervals. Baseline was recorded for 20 seconds followed by agonist stimulation. 50 μl 4× concentrated agonist solution was added to the cells using the pipettor of FlexStation II and fluorescence was monitored for an additional 40 seconds. Final DMSO concentration was 1% for all treatments. To achieve this, a series of DMSO stock solutions were prepared from all test compounds. These stocks were stored under 0° C. and were further diluted in assay buffer to obtain the desired final concentration immediately before the measurement. Agonist and PAM concentration-response studies were conducted in the presence of saturating concentrations of PAMs (mostly PNU-120596, 5 μM) and agonists (mostly PNU-282987, 1 μM), respectively. Results were expressed as ΔF/F values using SoftMax Pro software (Molecular Devices), where F was the resting fluorescence preceding agonist application and ΔF was the increase in fluorescence at a given time (ΔF=maximum fluorescence intensity values after stimulation minus average fluorescence intensity values before stimulation). In all experiments, all treatments were measured in multiple wells in parallel, and the mean ΔF/F values were used for analysis.

Sequence of human α7 nAchR (P36544 23-502): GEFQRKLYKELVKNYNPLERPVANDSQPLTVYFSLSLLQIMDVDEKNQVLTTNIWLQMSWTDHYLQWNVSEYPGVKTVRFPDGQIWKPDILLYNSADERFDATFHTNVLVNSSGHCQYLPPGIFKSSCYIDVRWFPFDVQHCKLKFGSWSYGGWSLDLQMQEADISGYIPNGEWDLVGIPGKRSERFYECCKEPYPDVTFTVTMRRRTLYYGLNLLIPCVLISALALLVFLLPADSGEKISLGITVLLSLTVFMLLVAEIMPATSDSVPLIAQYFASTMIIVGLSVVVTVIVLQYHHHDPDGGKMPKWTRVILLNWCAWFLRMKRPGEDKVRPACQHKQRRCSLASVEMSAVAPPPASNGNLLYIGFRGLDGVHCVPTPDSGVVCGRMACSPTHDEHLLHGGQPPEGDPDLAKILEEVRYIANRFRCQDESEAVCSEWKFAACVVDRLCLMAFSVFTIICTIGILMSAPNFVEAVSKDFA

pEC50 | Structure (SMILES)
6.02 | COCCN1C(C(=O)Nc2cccc(C(F)(F)F)n2)=CC(C2CCC(F)(F)CC2)=NS1(=O)=O [Example 130]
6.17 | COc1cccc(NC(=O)C2=CC(c3ccc(OC)c(OC)c3)=NS(=O)(=O)N2C)c1 [Example 10]
6.47 | COc1ccc(C2=NS(=O)(=O)N(C)C(C(=O)Nc3ccc(C)c(Cl)c3)=C2)cc1OC [Example 13]
7.12 | CCCN1C(C(=O)Nc2ccc(OC)cc2)=CC(c2ccc(OC)c(OC)c2)=NS1(=O)=O [Example 112]
6.41 | CCN1C(C(=O)Nc2cccc(C(F)(F)F)n2)=CC(C2CCCCC2)=NS1(=O)=O [Example 73]
6.70 | CCCCN1C(C(=O)Nc2cccc(C(F)(F)F)c2)=CC(c2ccc(OC)c(OC)c2)=NS1(=O)=O [Example 111]
7.26 | COc1ccc(C2=NS(=O)(=O)N(C(C)C)C(C(=O)Nc3cccc(F)n3)=C2)cc1OC [Example 123]
6.82 | CC(C)N1C(C(=O)Nc2ccnc(C(F)(F)F)n2)=CC([C@H]2CC[C@H](C(F)(F)F)CC2)=NS1(=O)=O [Example 136]
6.92 | C=CCN1C(C(=O)Nc2ccc(OC)cc2)=CC(c2ccc(OC)c(OC)c2)=NS1(=O)=O [Example 120]
6.10 | CCN1C(C(=O)Nc2cccc(C(C)(F)F)n2)=CC([C@H]2CC[C@H](C(F)(F)F)CC2)=NS1(=O)=O [Example 78]
6.85 | CC(C)N1C(C(=O)Nc2cncc(F)n2)=CC([C@H]2CC[C@H](C(F)(F)F)CC2)=NS1(=O)=O [Example 138]
5.89 | CCN1C(C(=O)Nc2ccc(C(F)(F)F)cn2)=CC([C@H]2CC[C@H](C(F)(F)F)CC2)=NS1(=O)=O [Example 59]
5.74 | COc1ccc(C2=NS(=O)(=O)N(C)C(C(=O)Nc3cccc(C#N)c3)=C2)cc1OC [Example 8]
6.92 | COc1ccc(C2=NS(=O)(=O)N(CC3CC3)C(C(=O)Nc3cccc(C(F)(F)F)c3)=C2)cc1C [Example 105]
6.92 | CC(C)N1C(C(=O)Nc2cccc(C(F)(F)F)n2)=CC([C@H]2CC[C@H](C(F)(F)F)CC2)=NS1(=O)=O [Example 93]
5.74 | COCCN1C(C(=O)Nc2cccc(F)n2)=CC(C2CCC(F)(F)CC2)=NS1(=O)=O [Example 131]
6.54 | COc1ccc(C2=NS(=O)(=O)N(C(C)C)C(C(=O)Nc3cccc(Cl)c3)=C2)cc1OC [Example 92]
5.82 | CCN1C(C(=O)Nc2ccc(F)c(C)n2)=CC([C@H]2CC[C@H](C(F)(F)F)CC2)=NS1(=O)=O [Example 77]
6.82 | CCN1C(C(=O)Nc2cccc(C(F)(F)F)c2)=CC(c2ccc(OC)c(C(F)(F)F)c2)=NS1(=O)=O [Example 39]
6.49 | CCN1C(C(=O)Nc2ccnc(F)n2)=CC([C@H]2CC[C@H](C(F)(F)F)CC2)=NS1(=O)=O [Example 79]

Second part, the compound before the results:

Structure (SMILES) | pEC50
CCN1C(C(=O)Nc2cccc(OC)c2)=CC(c2ccc(OC)c(C)c2)=NS1(=O)=O [Example 42] | 6.92
CCCN1C(C(=O)Nc2cccc(C(F)(F)F)n2)=CC(c2ccc(OC)c(C(F)(F)F)c2)=NS1(=O)=O [Example 97] | 7.52
CCCN1C(C(=O)Nc2cccc(C(F)(F)F)n2)=CC(c2ccc(OC)c(OC)c2)=NS1(=O)=O [Example 95] | 7.35
COc1ccc(C2=NS(=O)(=O)N(CC(F)(F)F)C(C(=O)Nc3cccc(C)c3)=C2)cc1OC [Example 119] | 6.42
CCN1C(C(=O)Nc2cc(Cl)ccn2)=CC([C@H]2CC[C@H](C(F)(F)F)CC2)=NS1(=O)=O [Example 62] | 5.55
O=C(Nc1cccc(C(F)(F)F)n1)C1=CC(C2CCC(F)(F)CC2)=NS(=O)(=O)N1CC1CC1 [Example 134] | 7.10
COc1ccc(C2=NS(=O)(=O)N([C@@H]3CCOC3)C(C(=O)Nc3cccc(C(F)(F)F)n3)=C2)cc1OC [Example 84] | 6.89
CCN1C(C(=O)Nc2cccc(F)n2)=CC(C2CCCCC2)=NS1(=O)=O [Example 74] | 5.96
CCN1C(C(=O)Nc2cccc(C(F)(F)F)n2)=CC([C@H]2CC[C@H](OC)CC2)=NS1(=O)=O [Example 65] | 5.96
COc1ccc(C2=NS(=O)(=O)N(C)C(C(=O)Nc3cc(Cl)ccc3OC)=C2)cc1Cl [Example 25] | 5.85
CCN1C(C(=O)Nc2cccc(C#N)n2)=CC([C@H]2CC[C@H](C(F)(F)F)CC2)=NS1(=O)=O [Example 76] | 7.07
COc1ccc(C2=NS(=O)(=O)N(CC3CC3)C(C(=O)Nc3cccc(C(F)(F)F)n3)=C2)cc1OC [Example 103] | 6.96
CCCCn1cc(NC(=O)C2=CC(c3ccc(OC)c(OC)c3)=NS(=O)(=O)N2C)cn1 [Example 86, N-(1-butyl-1H-pyrazol-4-yl)-5-(3,4-dimethoxyphenyl)-2-methyl-1,1-dioxo-2H-1λ^6,2,6-thiadiazine-3-carboxamide] | 5.54
CCN1C(C(=O)Nc2cncc(C(F)(F)F)n2)=CC(C2CCC(F)(F)CC2)=NS1(=O)=O [Example 69] | 5.96
CCN1C(C(=O)Nc2cccc(C(F)(F)F)c2)=CC(c2ccc(OC)c(OC)c2)=NS1(=O)=O [Example 31] | 6.36
COc1ccc(C2=NS(=O)(=O)N(C)C(C(=O)Nc3cccc(F)c3)=C2)cc1OC [Example 19] | 5.80
COc1ccc(C2=NS(=O)(=O)N(CC3CC3)C(C(=O)Nc3cccc(Cl)c3)=C2)cc1OC [Example 104] | 6.43
COc1ccc(C2=NS(=O)(=O)N(C)C(C(=O)Nc3cc(C)ccn3)=C2)cc1OC [Example 18] | 5.54
O=C(Nc1cncc(F)n1)C1=CC([C@H]2CC[C@H](C(F)(F)F)CC2)=NS(=O)(=O)N1CC1CC1 [Example 139] | 6.82

Structure (SMILES) | pEC50
CCN1C(C(=O)Nc2ccc(Cl)c(OC)c2)=CC(c2ccc(OC)c(OC)c2)=NS1(=O)=O [Example 35] | 6.82
COc1ccc(C2=NS(=O)(=O)N(C(C)C)C(C(=O)Nc3cccc(C(F)(F)F)c3)=C2)cc1OC [Example 89] | 6.54
Cc1cccc(NC(=O)C2=CC(c3ccc4c(cnn4C)c3)=NS(=O)(=O)N2C)c1 [Example 22] | 6.43
COc1ccc(NC(=O)C2=CC(c3ccc(OC)c(OC)c3)=NS(=O)(=O)N2CC2CC2)cc1 [Example 116] | 7.00
COc1ccc(C2=NS(=O)(=O)N(C)C(C(=O)Nc3cccc(C(C)=O)c3)=C2)cc1OC [Example 4] | 6.01
CCCn1ccc(NC(=O)C2=CC(c3ccc(OC)c(OC)c3)=NS(=O)(=O)N2C)n1 [Example 85, 5-(3,4-dimethoxyphenyl)-2-methyl-1,1-dioxo-N-(1-propyl-1H-pyrazol-3-yl)-2H-1λ^6,2,6-thiadiazine-3-carboxamide] | 5.70
CCN1C(C(=O)Nc2cccc(C(F)(F)F)n2)=CC(c2ccc(OC)c(C(F)(F)F)c2)=NS1(=O)=O [Example 87, 2-ethyl-5-[4-methoxy-3-(trifluoromethyl)phenyl]-1,1-dioxo-N-[6-(trifluoromethyl)pyridin-2-yl]-2H-1λ^6,2,6-thiadiazine-3-carboxamide] | 8.00
CCN1C(C(=O)Nc2ccnc(C(F)(F)F)c2)=CC([C@H]2CC[C@H](C(F)(F)F)CC2)=NS1(=O)=O [Example 88] | 5.85
COc1cc(C2=NS(=O)(=O)N(C)C(C(=O)Nc3cccc(C)c3)=C2)ccc1Cl [Example 28] | 5.92
COc1ccc(C2=NS(=O)(=O)N(C)C(C(=O)Nc3cccc(C)c3)=C2)cc1C [Example 24] | 6.68
O=C(Nc1cccc(F)n1)C1=CC([C@H]2CC[C@H](C(F)(F)F)CC2)=NS(=O)(=O)N1CC1CC1 [Example 132] | 7.46
CC(C)N1C(C(=O)Nc2cccc(F)n2)=CC(C2CCC(F)(F)CC2)=NS1(=O)=O [Example 127] | 6.24
CCCN1C(C(=O)Nc2cccc(C(F)(F)F)n2)=CC(c2ccc(OC)c(Cl)c2)=NS1(=O)=O [Example 101] | 7.19
COc1ccc(NC(=O)C2=CC(c3ccc(OC)c(OC)c3)=NS(=O)(=O)N2C(C)C)cc1 [Example 108] | 5.89
CCN1C(C(=O)Nc2ccc(C)cc2)=CC(c2ccc(OC)c(C)c2)=NS1(=O)=O [Example 46] | 6.77
COc1ccc(C2=NS(=O)(=O)N(C)C(C(=O)Nc3cccc(C)n3)=C2)cc1OC [Example 16] | 5.85
CCCN1C(C(=O)Nc2cccc(C(F)(F)F)c2)=CC(c2cc(OC)c(OC)cc2F)=NS1(=O)=O [Example 96] | 6.48
CCN1C(C(=O)Nc2ccnc(C(F)(F)F)n2)=CC([C@H]2CC[C@H](C(F)(F)F)CC2)=NS1(=O)=O [Example 64] | 6.48
